In PMC4580987, “Catalytic site inhibition of insulin-degrading enzyme by a small molecule induces glucose intolerance in mice” (Nature Communications, 2015):

Columns and labels:
hIDE [1] = molecular target: T1, hIDE (Homo sapiens, UniProt P14735); assay: In vitro hIDE inhibition of insulin hydrolysis; format: biochemical; conditions: for IC50: full insulin substrate, value (CI 95%), mean of 3 to 10 experiments, read-out: IC50 insulin hydrolysis
T1 construct: made in house
T1 sequence (P14735 1-1019): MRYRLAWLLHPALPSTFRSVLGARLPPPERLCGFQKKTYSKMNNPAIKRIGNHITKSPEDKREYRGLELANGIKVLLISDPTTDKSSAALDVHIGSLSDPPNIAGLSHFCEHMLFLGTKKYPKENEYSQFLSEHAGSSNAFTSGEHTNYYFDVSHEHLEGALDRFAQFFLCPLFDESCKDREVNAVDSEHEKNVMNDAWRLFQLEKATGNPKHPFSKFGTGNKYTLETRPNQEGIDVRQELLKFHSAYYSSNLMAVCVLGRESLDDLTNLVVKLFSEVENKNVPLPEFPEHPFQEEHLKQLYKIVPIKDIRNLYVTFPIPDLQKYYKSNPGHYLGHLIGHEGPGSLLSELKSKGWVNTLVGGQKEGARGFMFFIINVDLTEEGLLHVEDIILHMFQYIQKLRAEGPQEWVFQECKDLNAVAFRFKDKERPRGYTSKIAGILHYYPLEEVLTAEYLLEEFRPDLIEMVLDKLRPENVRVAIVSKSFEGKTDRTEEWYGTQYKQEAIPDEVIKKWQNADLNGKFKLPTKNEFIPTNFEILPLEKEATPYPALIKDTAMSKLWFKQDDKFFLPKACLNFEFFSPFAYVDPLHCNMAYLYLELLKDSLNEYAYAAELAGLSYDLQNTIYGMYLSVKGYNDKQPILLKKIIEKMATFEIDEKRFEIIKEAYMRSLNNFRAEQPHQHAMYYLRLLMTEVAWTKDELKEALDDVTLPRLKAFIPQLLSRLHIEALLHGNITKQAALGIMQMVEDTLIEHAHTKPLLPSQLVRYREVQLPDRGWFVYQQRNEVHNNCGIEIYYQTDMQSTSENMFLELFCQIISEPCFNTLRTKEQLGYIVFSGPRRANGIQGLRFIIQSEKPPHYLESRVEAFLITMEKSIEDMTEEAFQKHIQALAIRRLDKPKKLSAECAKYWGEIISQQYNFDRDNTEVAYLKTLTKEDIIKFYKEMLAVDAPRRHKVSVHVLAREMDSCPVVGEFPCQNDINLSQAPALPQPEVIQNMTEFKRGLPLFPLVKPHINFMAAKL
Protocol: The enzymatic activity of hIDE was assayed quantifying the amount of insulin (Actrapid) at the end of the reaction. The quantity of insulin was determined using a Luminex kit (HMHMAG-34K, Millipore). 20 μl of WT IDE in Hepes buffer (50 mM with 100 mM NaCl, pH 7.4) at 1 μg ml^−1 were pre-incubated 10 min at ambient temperature with 20 μl of test compound or vehicle in 96-well microtiter plates (dark, non-binding surface). The reaction was then started by the addition of 40 μl of insulin at 40 nM. The final concentration of hIDE and substrate was 0.25 μg ml^−1 and 20 nM, respectively. Incubations were performed at ambient temperature for 10 min. The reaction was then stopped by addition of 80 μl of 200 mM EDTA. The samples were diluted by a factor of 3, and 15 μl were transferred to 96-well microtiter plates (dark, clear bottom, non-binding surface) containing 15 μl of assay buffer (from Luminex Kit). Fifteen microlitre of insulin magnetic beads were added. Incubation was performed during 16–18 h at 4 °C under agitation. Wells were washed three times and 30 μl of hormone panel antibodies were added. The samples were incubated 30 min at ambient temperature under agitation. 30 μl of strepdavidin-phycoerythrin were added. Incubation was performed 30 min at ambient temperature under agitation. Wells were washed three times and 80 μl of drive fluid were added. The plate was then read with the MagPix apparatus. Data analysis was performed using Xlfit v 5.0 and GraphPad Prism v 4.0. Nonlinear curve fitting and statistical analysis was done using equation 1: […]
where A is minimum value of y; B is range of y; C is the IC50 value and D is slope factor.

hIDE [2] = molecular target: T1, hIDE; assay: In vitro hIDE inhibition of Aβ16–23-based substrate hydrolysis; format: biochemical; conditions: for inhibition at 100 µM: 100 µM (footnote c)
Protocol: In vitro IDE activity was measured with a quenched substrate […]. Human recombinant IDE was cloned and purified as previously described. […] All measurements were carried out as 8-point dose response curves and reported as the average of at least three independent measurements. […] Data analysis was performed using Xlfit v 5.0 and GraphPad Prism v 4.0. Nonlinear curve fitting and statistical analysis was done using built-in functions.

hIDE [3] = molecular target: T1, hIDE; assay: 19F NMR ligand-observed interaction with the enzyme; format: binding; conditions: 5 μM enzyme
Protocol: […] The carrier frequency was set at −100 p.p.m. with a spectral window of 40 ppm, and 4,024 scans were recorded per sample, except for the 6.25 μM sample for which 12,288 scans were recorded.

[4] = system: human SY5Y neuroblastoma cells; assay: Aβ1–40 secretion by differentiated SH-SY5Y cells (ELISA); format: cell-based; conditions: 10 μM and 30 μM, 48 h
Protocol: The human neuroblastoma cell lines SH-SY5Y were provided from ATCC (cat. no. crl2266) with a Certificate of Analysis and not checked in the lab for mycoplasma contamination. […] SH-SY5Y were seeded in a 96-well plate at 200,000 cells per cm^2. […] Differentiated cells were then incubated with compounds at 10 μM and 30 μM in presence of 0.1% DMSO.

mice = system: mice; parameters: method as in Maianti et al, Nature 2014; conditions: ref Maianti et al, Nature 2014, cited from earlier work

Q: With `O=C(C[C@@H](Cc1ccc2ccccc2c1)n1nncc1CNC(=O)C1CCCCC1)NO` [Compound 17] as the compound, how does the IC50 (hIDE [1]) read?
A: 30 µM

Q: And the IC50 (hIDE [2])?
A: > 100 µM

Q: What about the inhibition at 100 µM (hIDE [2]) of the same compound?
A: < 10%

Q: Which results are given for `O=C(C[C@@H](Cc1ccc2ccccc2c1)n1cc(CNC(=O)c2ccccc2)nn1)NO` [Compound 2]?
A: melting point: 192.8 to 194 °C; IC50 (hIDE [1]): 0.51 µM; IC50 (hIDE [2]): 0.7 µM

Q: Which results are given for `O=C(C[C@@H](Cc1ccc2ccccc2c1)c1nc(CNC(=O)c2ccc(F)cc2)no1)NO` [Compound 12]?
A: IC50 (hIDE [1]): 6.5 µM; IC50 (hIDE [2]): 29 µM

Q: For `O=C(C[C@@H](Cc1ccc2ccccc2c1)n1cc(CNS(=O)(=O)c2ccc(F)cc2)nn1)NO` [Compound 9], which melting point is on record?
A: 157.1 to 158.7 °C

Q: And the IC50 (hIDE [1])?
A: 6 µM

Q: And the IC50 (hIDE [2])?
A: 5.7 µM

Q: For `O=C(CC(Cc1ccc2ccccc2c1)c1nc(CNC(=O)c2ccccc2)no1)NO` (centres unmarked) [Compound 11], which IC50 (hIDE [1]) is on record?
A: 9.6 µM

Q: And the IC50 (hIDE [2])?
A: 74 µM

Q: What does the source list for `Cc1ccc(C(=O)NCc2cn([C@@H](CC(=O)NO)Cc3ccc4ccccc4c3)nn2)cc1` [Compound 3]?
A: melting point: 181.7 to 182.6 °C; IC50 (hIDE [1]): 6.7 µM; IC50 (hIDE [2]): 2.7 µM

Q: Which results are given for `O=C(C[C@@H](Cc1ccc2ccccc2c1)n1cc(CNC(=O)C2CCCCC2)nn1)NO` [Compound 5]?
A: melting point: 176.6 to 177.9 °C; IC50 (hIDE [1]): 0.44 µM; IC50 (hIDE [2]): 0.8 µM

Q: With `COc1ccc(C(=O)NCc2cn([C@@H](CC(=O)NO)Cc3ccc4ccccc4c3)nn2)cc1` [Compound 4] as the compound, how does the melting point read?
A: 178.3 to 179.6 °C

Q: And the IC50 (hIDE [1])?
A: 3.4 µM

Q: What about the IC50 (hIDE [2]) of the same compound?
A: 4.5 µM

Q: Which IC50 (hIDE [1]) does the source give for `Cc1ccc(CC(=O)NCc2cn([C@@H](CC(=O)NO)Cc3ccc4ccccc4c3)nn2)cc1` [Compound 7] here?
A: 2.3 µM

Q: What about the IC50 (hIDE [2]) of the same compound?
A: 12 µM

Q: For `O=C(O)CN(CCN(CC(=O)O)CC(=O)O)CC(=O)O` [EDTA, reference compound], which “inhibition of IDE by reference inhibitor” value (hIDE [2]; 2 mM) is on record?
A: 100%

Q: With `O=C(C[C@@H](Cc1ccc2ccccc2c1)n1nncc1CNC(=O)c1ccc(F)cc1)NO` [Compound 16] as the compound, how does the “19F NMR signal in the presence of enzyme at 2:1 or 1:1 compound:enzyme ratio” value (hIDE [3]) read?
A: signal intensity remains detectable

Q: What about the IC50 (hIDE [1]) of the same compound?
A: 12.1 µM

Q: And the IC50 (hIDE [2])?
A: > 100 µM

Q: And the inhibition at 100 µM (hIDE [2])?
A: < 10%

Q: Which IC50 (hIDE [1]) does the source give for `O=C(O)C[C@@H](Cc1ccc2ccccc2c1)n1cc(CNC(=O)c2ccc(F)cc2)nn1` [Compound 14] here?
A: 30 µM

Q: What about the IC50 (hIDE [2]) of the same compound?
A: > 100 µM

Q: With `O=C(CC(Cc1ccccc1)n1cc(CNC(=O)c2ccc(F)cc2)nn1)NO` (centres unmarked) [Compound 19] as the compound, how does the inhibition at 300 µM (hIDE [1]; 300 µM (footnote d)) read?
A: 50%

Q: What about the IC50 (hIDE [1]) of the same compound?
A: > 100 µM

Q: And the IC50 (hIDE [2])?
A: 80 µM

Q: Which IC50 (hIDE [1]) does the source give for `O=C(C[C@H](Cc1ccc2ccccc2c1)n1cc(CNC(=O)c2ccc(F)cc2)nn1)NO` [Compound 15] here?
A: 2 µM

Q: And the IC50 (hIDE [2])?
A: 2.8 µM

Q: With `O=C(C[C@@H](Cc1ccc2ccccc2c1)n1cc(CNC(=O)Cc2ccccc2)nn1)NO` [Compound 6] as the compound, how does the IC50 (hIDE [1]) read?
A: 0.74 µM

Q: What about the IC50 (hIDE [2]) of the same compound?
A: 3.2 µM

Q: For `Cc1ccc(C(=O)NCc2cn(C(CC(=O)NO)Cc3ccccc3)nn2)cc1` (centres unmarked) [Compound 10], which “Aβ1–40 in culture supernatants” value [4] is on record?
A: had no effect

Q: And the IC50 (hIDE [1])?
A: 6.1 µM

Q: What about the “fold less active than 1 against purified IDE” value (hIDE [1]; relative to compound 1) of the same compound?
A: 100 fold

Q: What about the IC50 (hIDE [2]) of the same compound?
A: > 100 µM

Q: And the inhibition at 100 µM (hIDE [2])?
A: < 10%

Q: With `NCCCC[C@@H]1NC(=O)/C=C/C(=O)N[C@H](C(N)=O)CCCCNC(=O)[C@@H](Cc2ccc(C(=O)c3ccccc3)cc2)NC(=O)[C@H](CC2CCCCC2)NC1=O` [6bK] as the compound, how does the “glucose tolerance in OGTT, 6bK” value (mice; IDE dependant, GLP-1 dependant, insulin driven) read?
A: Improves glucose tolerance in OGTT

Q: And the “glucose tolerance in IPGTT, 6bK” value (mice; IDE dependant)?
A: Impairs glucose tolerance in IPGTT

Q: And the “gluconeogenesis in a pyruvate tolerance test, 6bK” value (mice)?
A: Lowers gluconeogenesis

Q: And the “insulin action in vivo (ITT), 6bK” value (mice)?
A: Augments insulin action in vivo
